According to patent US4234724A, “Cephalosporin analogues and processes for the preparation thereof” (Fujisawa Pharmaceutical Company, Limited, priority 1977, dated 1980):
Values after ≈ are worked out from the molar mass of the structure shown.

Assays:
Assay in all cases: In vitro antibacterial activity, two-fold agar-plate dilution method
Format in all cases: cell-based
Pr. vulgaris 2 = conditions: Proteus vulgaris, HI-agar, 37° C., 20 hours, 10^6 viable cells per ml
Experimental: (§1) In vitro antibacterial activity was determined by the two-fold agar-plate dilution method as described below.
(§2) One loopful of an overnight culture of each test strain in Trypticase-soy broth (10^6 viable cells per ml.) was streaked on heart infusion agar (HI-agar) containing graded concentrations of antibiotics, and the minimum inhibitory concentration (MIC) was expressed in terms of μg/ml after incubation at 37° C. for 20 hours.

Kl. pneumoniae 20 = conditions: Klebsiella pneumoniae, HI-agar, 37° C., 20 hours, 10^6 viable cells per ml
Experimental: as §1, §2

Pr. mirabilis 18 = conditions: Proteus mirabilis, HI-agar, 37° C., 20 hours, 10^6 viable cells per ml
Experimental: as §1, §2

E. coli 31 = conditions: Escherichia coli, HI-agar, 37° C., 20 hours, 10^6 viable cells per ml
Experimental: as §1, §2

SMILES	MIC (Pr. vulgaris 2)	MIC (Kl. pneumoniae 20)	MIC (Pr. mirabilis 18)	MIC (E. coli 31)
CON=C(C(=O)NC1C(=O)N2C(C(=O)O)=CCOC12)c1csc(N)n1 (stereo not drawn) [(1), 7β-[2-Methoxyimino-2-(2-aminothiazol-4-yl)acetamid]-1-oxadethia-3-cephem-4-carboxylic acid (syn isomer)]	0.2 µg/mL (≈ 0.544 µM)	0.1 µg/mL (≈ 0.272 µM)	0.05 µg/mL (≈ 0.136 µM)	0.05 µg/mL (≈ 0.136 µM)
CCON=C(C(=O)NC1C(=O)N2C(C(=O)O)=CCOC12)c1csc(N)n1 (stereo not drawn) [(2), 7β-[2-Ethoxyimino-2-(2-aminothiazol-4-yl)acetamido]-1-oxadethia-3-cephem-4-carboxylic acid (syn isomer)]	0.05 µg/mL (≈ 0.131 µM)	0.025 µg/mL (≈ 0.0656 µM)	0.05 µg/mL (≈ 0.131 µM)	0.05 µg/mL (≈ 0.131 µM)
CON=C(C(=O)NC1C(=O)N2C(C(=O)O)=CCOC12)c1nsc(N)n1 (stereo not drawn) [(4), 7β-[2-Methoxyimino-2-(5-amino-1,2,4-thiadiazol-3-yl)acetamido]-1-oxadethia-3-cephem-4-carboxylic acid (syn isomer)]	0.1 µg/mL (≈ 0.271 µM)	0.05 µg/mL (≈ 0.136 µM)	0.1 µg/mL (≈ 0.271 µM)	0.025 µg/mL (≈ 0.0679 µM)
CON=C(C(=O)NC1C(=O)N2C(C(=O)O)=CCOC12)c1nccc(N)n1 (stereo not drawn) [(5), 7β-[2-Methoxyimino-2-(4-aminopyrimidin-2-yl)acetamido]-1-oxadethia-3-cephem-4-carboxylic acid (syn isomer)]	0.1 µg/mL (≈ 0.276 µM)	0.05 µg/mL (≈ 0.138 µM)	0.05 µg/mL (≈ 0.138 µM)	0.025 µg/mL (≈ 0.069 µM)
CC(C)ON=C(C(=O)NC1C(=O)N2C(C(=O)O)=CCOC12)c1csc(N)n1 (stereo not drawn) [(3), 7β-[2-Isopropoxyimino-2-(2-aminothiazol-4-yl)acetamido]-1-oxadethia-3-cephem-4-carboxylic acid (syn isomer)]	0.1 µg/mL (≈ 0.253 µM)	0.05 µg/mL (≈ 0.126 µM)	0.1 µg/mL (≈ 0.253 µM)	0.2 µg/mL (≈ 0.506 µM)
